Reference: patent publication US20260234139A1, “PGDH INHIBITORS AND METHODS OF MAKING AND USING” (Epirium Bio Inc., priority 2023, published 2026)

Legend:
15-PGDH/HPGD = target: T1, 15-PGDH/HPGD (Homo sapiens, UniProt P15428); assay: hPGDH inhibitor screening biochemical assay; settings: 10 nM enzyme, 15 μM Prostaglandin E2, 0.25 mM NAD, fluorescence ex/em 340/485 nm
T1 construct: purchased R&D System 5660-DH
T1 sequence (P15428 1-266): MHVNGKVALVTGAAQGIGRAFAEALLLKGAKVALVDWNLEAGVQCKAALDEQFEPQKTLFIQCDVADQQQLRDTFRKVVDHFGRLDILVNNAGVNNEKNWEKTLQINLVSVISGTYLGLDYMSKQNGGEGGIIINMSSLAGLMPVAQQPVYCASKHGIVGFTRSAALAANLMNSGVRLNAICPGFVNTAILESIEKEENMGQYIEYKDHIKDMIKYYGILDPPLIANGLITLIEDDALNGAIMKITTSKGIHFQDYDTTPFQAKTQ
In short: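 Recombinant 15-PGDH (10 nM) preincubated with compound 10 min at 37° C, then 15 μM PGE2 and 0.25 mM NAD⁺ added for 10 min at room temperature in 50 mM Tris-HCl pH 7.5, 0.01% Tween 20. NADH fluorescence at ex/em 340/485 nm; 10-point dose response.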

A549 = A549 EC50 (cell assay, method not described); format: cell-based; settings: Homo sapiens, A549, A549

Row | SMILES | IC50 (15-PGDH/HPGD) [nM] | EC50 (A549) [nM]
1 | CCOC1([C@@H](O)c2cnc3c(cnn3-c3cccc(-c4nnc[nH]4)c3)c2)CCC1 [Compound 83B] | 100 to 1000 | ≥ 1000
2 | CNC(=O)c1ccc(-n2ncc3cc([C@H](O)COC4CCC4)cnc32)cc1 [Compound 84A] | < 100 | < 100
3 | CNC(=O)c1ccc(-n2ncc3cc([C@@H](O)COC4CCC4)cnc32)cc1 [Compound 84B] | 100 to 1000 | ≥ 1000
4 | CCOC1([C@H](O)c2cnc3c(cnn3-c3ccc(C(=O)O)cc3)c2)CCC1 [Compound 85A] | 100 to 1000 | ≥ 1000
5 | CCOC1([C@@H](O)c2cnc3c(cnn3-c3ccc(C(=O)O)cc3)c2)CCC1 [Compound 85B] | ≥ 1000 | ≥ 1000
6 | O=C(O)CCc1ccc(-n2ncc3cc([C@@H](O)COC4CC4)cnc32)cc1F [Compound 86A] | < 100 | < 100
7 | O=C(O)[C@H]1CCN(c2ccc(-n3ncc4cc([C@@H](O)COC5CCC5)cnc43)cc2)C1 [Compound 87A] | < 100 | ≥ 1000
8 | O=C(O)[C@@H]1CCN(c2ccc(-n3ncc4cc([C@H](O)COC5CCC5)cnc43)cc2)C1 [Compound 87B] | 100 to 1000 | 100 to 1000
9 | O=C(O)CCc1ccc(-n2ncc3cc([C@@H](O)COC4CCCC4)cnc32)cc1F [Compound 88A] | 100 to 1000 | ≥ 1000
10 | O=C(O)CCc1ccc(-n2ncc3cc([C@H](O)COC4CCCC4)cnc32)cc1F [Compound 88B] | < 100 | 100 to 1000
11 | O=C(O)c1ccc(-n2ncc3cc([C@@H](O)COC4CCCC4)cnc32)cc1 [Compound 89A] | < 100 | ≥ 1000
12 | O=C(O)c1ccc(-n2ncc3cc([C@H](O)COC4CCCC4)cnc32)cc1 [Compound 89B] | < 100 | < 100
13 | CC1(OC[C@H](O)c2cnc3c(cnn3-c3ccc(C(=O)O)cc3)c2)CCC1 [Compound 90A] | < 100 | 100 to 1000
14 | CC1(OC[C@@H](O)c2cnc3c(cnn3-c3ccc(C(=O)O)cc3)c2)CCC1 [Compound 90B] | < 100 | < 100
15 | CC1(OC[C@H](O)c2cnc3c(cnn3-c3ccc(C(=O)O)cc3)c2)CC1 [Compound 92A] | < 100 | ≥ 1000
16 | CC1(OC[C@@H](O)c2cnc3c(cnn3-c3ccc(C(=O)O)cc3)c2)CC1 [Compound 92B] | < 100 | < 100

Row | SMILES | IC50 (15-PGDH/HPGD) [nM] | EC50 (A549) [nM]
17 | CCC1(OC[C@H](O)c2cnc3c(cnn3-c3ccc(C(=O)O)cc3)c2)CC1 [Compound 93A] | < 100 | 100 to 1000
18 | CCC1(OC[C@@H](O)c2cnc3c(cnn3-c3ccc(C(=O)O)cc3)c2)CC1 [Compound 93B] | < 100 | < 100
19 | O=C(O)c1ccc(-n2ncc3cc([C@@H](O)COC4CCC4)cnc32)cc1F [Compound 94A] | < 100 | < 100
20 | O=C(O)c1ccc(-n2ncc3cc([C@H](O)COC4CCC4)cnc32)cc1F [Compound 94B] | < 100 | ≥ 1000
21 | Cc1cc(-n2ncc3cc([C@@H](O)COC4CCC4)cnc32)ccc1C(=O)O [Compound 95A] | < 100 | < 100
22 | Cc1cc(-n2ncc3cc([C@H](O)COC4CCC4)cnc32)ccc1C(=O)O [Compound 95B] | 100 to 1000 | ≥ 1000
23 | O=C(O)c1ccc(-n2ncc3cc([C@H](O)COC4CCC4)cnc32)cn1 [Compound 96A] | < 100 | ≥ 1000
24 | O=C(O)c1ccc(-n2ncc3cc([C@@H](O)COC4CCC4)cnc32)cn1 [Compound 96B] | < 100 | 100 to 1000
25 | CC1(COC[C@H](O)c2cnc3c(cnn3-c3ccc(C(=O)O)cc3)c2)CC1 [Compound 106A] | < 100 | < 100
26 | CC1(COC[C@@H](O)c2cnc3c(cnn3-c3ccc(C(=O)O)cc3)c2)CC1 [Compound 106B] | < 100 | ≥ 1000
27 | O=C(O)c1ccc(-n2ncc3cc([C@@H](O)COCC4CC4)cnc32)cc1 [Compound 107A] | < 100 | < 100
28 | O=C(O)c1ccc(-n2ncc3cc([C@H](O)COCC4CC4)cnc32)cc1 [Compound 107B] | < 100 | ≥ 1000
29 | C[C@@H](OC1CCC1)[C@H](O)c1cnc2c(cnn2-c2ccc(C(=O)O)cc2)c1 [Compound 108A] | < 100 | < 100
30 | C[C@@H](OC1CCC1)[C@@H](O)c1cnc2c(cnn2-c2ccc(C(=O)O)cc2)c1 [Compound 108B] | 100 to 1000 | 100 to 1000
31 | C[C@H](OC1CCC1)[C@H](O)c1cnc2c(cnn2-c2ccc(C(=O)O)cc2)c1 [Compound 108C] | 100 to 1000 | 100 to 1000
